Reference: publication PMC9027957, “Interspecies Comparisons of the Effects of Potential Antiviral 3-Amidinophenylalanine Derivatives on Cytochrome P450 1A2 Isoenzyme” (Veterinary Sciences, 2022)

Legend:
CYP1A2 [1] = molecular target: T1, CYP1A2 (Macaca fascicularis, UniProt O77809); details: 2 h, 50 µM
T1 sequence (O77809 1-516): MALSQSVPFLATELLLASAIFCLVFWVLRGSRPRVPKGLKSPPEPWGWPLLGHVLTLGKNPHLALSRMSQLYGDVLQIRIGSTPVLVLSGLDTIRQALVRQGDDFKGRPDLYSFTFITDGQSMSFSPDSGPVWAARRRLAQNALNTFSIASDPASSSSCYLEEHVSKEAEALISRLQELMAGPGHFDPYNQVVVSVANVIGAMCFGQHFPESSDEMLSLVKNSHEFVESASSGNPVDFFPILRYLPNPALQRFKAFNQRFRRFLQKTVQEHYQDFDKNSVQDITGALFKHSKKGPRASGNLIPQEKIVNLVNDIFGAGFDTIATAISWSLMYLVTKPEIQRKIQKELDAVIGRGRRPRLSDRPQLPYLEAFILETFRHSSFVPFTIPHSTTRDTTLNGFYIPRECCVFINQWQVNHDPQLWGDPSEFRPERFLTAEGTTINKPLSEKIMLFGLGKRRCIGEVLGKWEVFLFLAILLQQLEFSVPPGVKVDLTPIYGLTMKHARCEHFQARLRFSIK
Experimental: For the measurements of CYP1A2 activities, hepatocytes were grown on 24-well collagen-coated membrane inserts (Costar Transwell-PTFE membrane, 6.5 mm, pore size: 0.4 µm, Merck, Darmstadt, Germany). […] The determination of the CYP1A2 activities were performed using the P450-Glo CYP450 Assay (Promega, Madison, WI, USA) according to the manufacturer’s instructions.

[2] = 60 min microsomal stability assay (UPLC-MS/MS), beagle liver microsomes; assay type: in vitro ADME; details: 50 µM
Experimental: Rat, beagle (Gibco, Biocenter, Szeged, Hungary), and cynomolgus monkey (Primacyt, Schwerin, Germany) liver microsomes were exposed to inhibitors MI-432, MI-463, MI-482, or MI-1900 at 50 µM for 60 min. The final microsomal protein concentration in the suspension was 0.6 mg/mL in each case. The reaction buffer (100 mM phosphate buffer pH 7.4) also contained 1 mM nicotinamide adenine dinucleotide phosphate (NADPH), 5 mM MgCl2, 10 mM glucose-6-phosphate (G6P), and 2 IU/mL glucose-6-phosphate dehydrogenase (G6PD). The reaction was terminated by the addition of ice-cold acetonitrile (ACN) with the ratio of sample ACN volume = 1:2. The precipitated protein was removed by centrifugation at 10,000× g for 10 min, and the supernatants were used for subsequent analyses.
The determination of all analytes was carried out using an UPLC/MS/MS system, which consisted of an HPLC apparatus (SCIEX ExionLC^TM UPLC, Framigham, MA, USA) and a SCIEX Qtrap 4500 triple-quadrupole mass spectrometer (Framigham, MA, USA) equipped with a SCIEX Turbo V electrospray ionization source. The HPLC columns used were LiChrospher RP Select B (125 × 4.0 mm, 5.0 μm, C8 stationary phase). Next, 0.1% trifluoroacetic acid in ultra-purified water (A) and acetonitrile (B) were used as mobile phases for chromatographic separations applying a gradient elution. The HPLC gradient program was the following: between 0 and 10 min, a ratio of 70% A and 30% B; from 10 to 20 min, linearly increasing to a ratio of 50% A and 50% B; from 20 to 21 min, maintained at a ratio of 50% A and 50% B; from 21 to 22 min, linearly decreasing back to a ratio of 70% A and 30% B; and between 22 min and 30 min, maintained at a ratio of 70% A and 30% B. The run time was 30 min, the column temperature was adjusted to 35 °C, and the flow rate was 1 mL/min.

SARS-CoV-2 = test system: SARS-CoV-2; set-up: method as in PMID 32703818; details: infected human airway epithelial Calu 3 cells, dose-dependent; cited from earlier work
CYP1A2 [3] = molecular target: T2, CYP1A2 (Rattus norvegicus, UniProt P04799); assay: CYP1A2 fluorometric activity assay in rat hepatic microsomes; assay type: in vitro ADME, rat (Sprague–Dawley); set-up: Rat (Sprague–Dawley) and beagle (Gibco, Biocenter, Szeged, Hungary, protein concentration: 20 mg/mL) hepatic microsomal preparations; tissue Gibco, Biocenter, Szeged, Hungary; host or cells: liver (hepatic microsomes), Sprague-Dawley rat
T2 sequence (P04799 1-513): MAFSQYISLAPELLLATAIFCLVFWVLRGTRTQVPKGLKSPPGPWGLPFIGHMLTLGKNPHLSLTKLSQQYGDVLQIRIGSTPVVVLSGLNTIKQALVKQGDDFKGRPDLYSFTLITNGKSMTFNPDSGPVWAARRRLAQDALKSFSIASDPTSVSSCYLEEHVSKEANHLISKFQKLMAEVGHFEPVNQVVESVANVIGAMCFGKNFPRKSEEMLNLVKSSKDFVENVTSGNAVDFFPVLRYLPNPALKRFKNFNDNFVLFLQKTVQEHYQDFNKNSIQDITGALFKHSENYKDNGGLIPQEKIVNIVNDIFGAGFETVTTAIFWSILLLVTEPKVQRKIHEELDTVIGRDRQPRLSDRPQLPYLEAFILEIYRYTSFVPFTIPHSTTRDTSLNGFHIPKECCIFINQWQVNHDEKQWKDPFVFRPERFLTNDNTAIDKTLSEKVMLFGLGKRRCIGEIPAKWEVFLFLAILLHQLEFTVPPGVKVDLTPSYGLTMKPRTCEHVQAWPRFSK
Experimental: The Biovision CYP assay (BioVision, Inc., Kampenhout, Belgium) utilizes a non-fluorescent CYP1A2 substrate capable of transforming into a highly fluorescent metabolite, which can be detected in the visible range. α-naphthoflavone was used as a CYP1A2 reference inhibitor at 6 µM during the experiments. Rat (Sprague–Dawley) and beagle (Gibco, Biocenter, Szeged, Hungary, protein concentration: 20 mg/mL) hepatic microsomal preparations were prepared separately by mixing 25 µL of the obtained rat or beagle microsomal suspension with 2425 µL assay buffer and with 50 µL NADPH generating system (100×). In the case of the cynomolgus monkey microsomal suspension (Primacyt, Schwerin, Germany, protein concentration: 5 mg/mL), the following volumes were applied: in addition to 100 µL of monkey microsomal suspension, the amount of assay buffer and the NADPH generating system were adjusted in order to ensure the original ratios of these components to reach a final volume of 2500 µL. Rat, beagle, and cynomolgus monkey microsomal suspension aliquots (50 µL) were treated with the protease inhibitor 20 µL, 0–1000 µM), the reference compound α-naphthoflavone (20 µL, 30 µM), or the assay buffer without test compounds (20 µL, background control) for 15 min at 37 °C. After incubation, 30 µL of the appropriate CYP1A2 substrate/NADP+ mixture was added to each well, yielding a final reaction volume of 100 µL/well. The protein contents of the obtained microsomes were analysed using bicinchoninic acid protein assay kit (Pierce BCA kit, Thermo Fisher Scientific, Waltham, MA, USA). […] The fluorescence intensities were measured with a fluorometer (Victor X2 2030, Perkin Elmer, Waltham, MA, USA), using λEx/Em = 406/468 nm.

Structure (SMILES) | CYP1A2 activity in cynomolgus monkey hepatocytes (CYP1A2 [1]) | depletion percentage of the parent compound ([2]; beagle, dog, pH 7.4) | SARS-CoV-2 titers (SARS-CoV-2) | rat hepatic microsomal CYP1A2 isoenzyme activity (CYP1A2 [3]; Sprague-Dawley, rat, 15 min, 50 µM) | depletion percentage of the parent compound ([2]; beagle microsomes, 0.6 mg/mL protein, mean ± SD (n = 3)) | rat hepatic microsomal CYP1A2 isoenzyme activity (CYP1A2 [3]; inhibitors at 50 µM, 15 min at 37 °C, vs untreated control)
N=C(N)c1cccc(C[C@H](NS(=O)(=O)c2cccc(-c3ccc(Cl)cc3Cl)c2)C(=O)N2CCC(CCN)CC2)c1 [MI-432] | significantly decrease the activity of CYP1A2 | 23.8 ± 7% | reduced | did not inhibit CYP1A2 function |  | 
COc1ccc(-c2cccc(S(=O)(=O)N[C@@H](Cc3cccc(C(=N)N)c3)C(=O)N3CCN(C(=O)NC4CCCCC4)CC3)c2)c(OC)c1 [MI-1900] | significantly decrease the activity of CYP1A2 |  | reduced |  | 23.7 ± 11.1% | suppressed
